From publication PMC10487843, “Evaluation of Anticancer and Anti-Inflammatory Activities of Some Synthetic Rearranged Abietanes” (International Journal of Molecular Sciences, 2023)
In brackets after ≈: the same amount, converted by molar mass. Where two headings read alike, the source gives them in different places.

Key:
[1] = test system: human hepatocarcinoma (HepG2); test: MTT cell viability assay, HepG2; format: cell-based; settings: for IC80: 80% growth inhibition
Source text: (§1) In this study, we employed the MTT (3-(4,5-dimethyl thiazol-2-yl)-2,5-diphenyltetrazolium bromide) colorimetric assay to evaluate the cytotoxic activity of selected abietanes (compounds 5, 7, 13, 17, and 19) against three tumor cell lines: human colon adenocarcinoma (HT29), human hepatocarcinoma (HepG2), and murine melanoma (B16–F10). The MTT assay relied on the conversion of MTT to formazan by viable cells, with the formazan concentration proportional to the number of viable cells. The concentrations required for 50 and 80% growth inhibition (IC50 and IC80) were determined for each compound.
The human colorectal adenocarcinoma cell line HT29 (ECACC no. 9172201; ATCC no. HTB-38), the human hepatocarcinoma cell line HepG2 (ECACC no. 85011430), the mouse melanoma cells B16–F10 (ATCC no. CRL-6475), and the murine monocyte/macrophage like RAW 264.7 cell line (ATCC no, TIB-71) were obtained from the cell bank of the University of Granada, Spain. The tumor cell lines were cultured in DMEM (Dulbecco’s modified Eagle’s medium) supplemented with 2 mM glutamine, 10% heat-inactivated FCS (fetal calf serum), and 50 μg/mL of gentamicin (for all cancer cell lines). The RAW 264.7 cell line was cultured in RPMI1640 medium, supplemented with 2 mM glutamine, 10% heat-inactivated FCS, and 50 μg/mL of gentamicin. All cell lines were incubated at 37 °C, in an atmosphere of 5% CO2 and 95% humidity. The culture media were changed every 48 h, and the confluent cultures were separated with a trypsin solution (0.25% EDTA). In all experiments, monolayer cells were grown to 80–90% confluence in sterile cell culture flasks.
The effects of the compounds on the cell viability were established using the MTT method (Sigma, St. Louis, MO, USA). The cytotoxicity of the compounds was assessed by measuring the absorbance of MTT dye staining of metabolically competent cells. The cells were cultivated in 96-well plates at 6.0 × 10^3 cells/mL for the HT29 and RAW 264.7 cell lines, at 5.0 × 10^3 cells/mL for B16–F10 cells, and 15.0 × 10^3 cells/mL for the HepG2 cell line, with a final volume of 200 μL per well being incubated with the different products (0–100 μg/mL). After 72 h, 100 μL of MTT solution (0.5 mg/mL) in 50% of PBS and 50% of the medium was added to each well. Following incubation for 1.5 h, formazan was resuspended in 100 μL of DMSO, and each concentration was tested in triplicate. The cell viability relative to the untreated control cells was determined by measuring the absorbance at 570 nm using an ELISA plate reader (Tecan Sunrise MR20–301, TECAN, Grödig, Austria).

[2] = RAW 264.7 cell viability (MTT); format: cell-based, murine; settings: mouse, RAW 264.7 monocyte/macrophage cells; RAW 264.7, MTT, 0–100 μg/mL; read-out: IC50 (cytotoxicity)
Description: To evaluate the cytotoxic effects of the synthesized abietanes (5, 7, 13, 17, and 19) on RAW 264.7 monocyte/macrophage murine cells and to establish sub-cytotoxic concentrations for anti-inflammatory testing, we conducted cell viability assays using the MTT method. Each compound was tested at increasing concentration levels (0–100 μg/mL), and the IC50 values were determined by interpolation in the sigmoidal cytotoxicity curves (Figure 8). […] Additionally, sub-cytotoxic concentrations corresponding to ¾ IC50, ½ IC50, and ¼ IC50 were determined and selected for subsequent anti-inflammatory assays, ensuring that the observed effects were specifically attributed to the anti-inflammatory properties of the compounds rather than cytotoxicity. The human colorectal adenocarcinoma cell line HT29 (ECACC no. 9172201; ATCC no. HTB-38), the human hepatocarcinoma cell line HepG2 (ECACC no. 85011430), the mouse melanoma cells B16–F10 (ATCC no. CRL-6475), and the murine monocyte/macrophage like RAW 264.7 cell line (ATCC no, TIB-71) were obtained from the cell bank of the University of Granada, Spain. The tumor cell lines were cultured in DMEM (Dulbecco’s modified Eagle’s medium) supplemented with 2 mM glutamine, 10% heat-inactivated FCS (fetal calf serum), and 50 μg/mL of gentamicin (for all cancer cell lines). The RAW 264.7 cell line was cultured in RPMI1640 medium, supplemented with 2 mM glutamine, 10% heat-inactivated FCS, and 50 μg/mL of gentamicin. All cell lines were incubated at 37 °C, in an atmosphere of 5% CO2 and 95% humidity. The culture media were changed every 48 h, and the confluent cultures were separated with a trypsin solution (0.25% EDTA). In all experiments, monolayer cells were grown to 80–90% confluence in sterile cell culture flasks. The effects of the compounds on the cell viability were established using the MTT method (Sigma, St. Louis, MO, USA). The cytotoxicity of the compounds was assessed by measuring the absorbance of MTT dye staining of metabolically competent cells. The cells were cultivated in 96-well plates at 6.0 × 10^3 cells/mL for the HT29 and RAW 264.7 cell lines, at 5.0 × 10^3 cells/mL for B16–F10 cells, and 15.0 × 10^3 cells/mL for the HepG2 cell line, with a final volume of 200 μL per well being incubated with the different products (0–100 μg/mL). After 72 h, 100 μL of MTT solution (0.5 mg/mL) in 50% of PBS and 50% of the medium was added to each well. Following incubation for 1.5 h, formazan was resuspended in 100 μL of DMSO, and each concentration was tested in triplicate. The cell viability relative to the untreated control cells was determined by measuring the absorbance at 570 nm using an ELISA plate reader (Tecan Sunrise MR20–301, TECAN, Grödig, Austria).

[3] = test system: HT29, HepG2 and B16–F10 cell lines; test: MTT cell viability assay, span over all three tumor cell lines; format: cell-based; settings: 72 h
Source text: as §1
The human colorectal adenocarcinoma cell line HT29 (ECACC no. 9172201; ATCC no. HTB-38), the human hepatocarcinoma cell line HepG2 (ECACC no. 85011430), the mouse melanoma cells B16–F10 (ATCC no. CRL-6475), and the murine monocyte/macrophage like RAW 264.7 cell line (ATCC no, TIB-71) were obtained from the cell bank of the University of Granada, Spain. […]
The effects of the compounds on the cell viability were established using the MTT method (Sigma, St. Louis, MO, USA). The cytotoxicity of the compounds was assessed by measuring the absorbance of MTT dye staining of metabolically competent cells. […] The cell viability relative to the untreated control cells was determined by measuring the absorbance at 570 nm using an ELISA plate reader (Tecan Sunrise MR20–301, TECAN, Grödig, Austria).

[4] = Homo sapiens, HepG2, 72 h, read-out: IC50

IC50 ([1]; 72 h, listed as Pygmaeocin B (5)) [µg/mL] | IC50 [1, 4] [µg/mL] | IC50 ([3]; read-out: IC50 values, range in all three cell lines) [µg/mL] | Compound | IC80 ([1]; Homo sapiens, 72 h) [µg/mL] | IC50 at 72 h [2] [µg/mL] | IC80 ([3]; read-out: IC80 values, range in all three cell lines) [µg/mL]
8.99 ± 1.12 (≈ 29 µM) | 8.98 (≈ 28.9 µM) |  | CC(C)C1=CC2=C(C(=O)C1=O)C1=CC(=O)CC(C)(C)[C@@]1(C)C=C2 [Compound 5, Pygmaeocin B] | 11.4 ± 1.08 (≈ 36.8 µM) | 0.14 ± 0.09 (≈ 0.451 µM) | 
 | 5.58 ± 0.93 (≈ 18.6 µM) | 2.67 to 5.58 (≈ 8.89 to 18.6 µM) | CC(C)C1=CC2=C(C(=O)C1=O)[C@@]1(C)CCCC(C)(C)[C@@H]1CC2 [Compound 13] | 7.67 ± 0.8 (≈ 25.5 µM) | 8.18 ± 1.86 (≈ 27.2 µM) | 5.19 to 7.67 (≈ 17.3 to 25.5 µM)
